Where a SMILES comes first, the peptide text is derived from it. [ ]: non-standard residue; d: D form. dPhe(F5) = N[C@H](Cc1c(F)c(F)c(F)c(F)c1F)C(=O)O
What was measured:
sperm [1] = assay: acrosome reaction, analogs alone or in the presence of GRP (sperm species not stated); format: cell-based; conditions: for % Acrosome Reacted, Analog + GRP: analog 50 nM + GRP 2 nM; for % Acrosome Reacted, Analog: analog alone, final concentration 50 nM, blank control 6.000 ± .707
Protocol: (§1) The acrosome reaction, which is necessary for sperm to fertilize the egg, was induced by the following methods.
(§2) For monkeys, sperm was collected, washed twice in balanced salts, resuspended in lactate/bicarbonate and dibutyryl cAMP, and then incubated for 60 minutes. […] See Wolf, D. P. et al. Mol. Reprod. Dev. 27:261-280 (1990); Lanzendorf, S. E. et al. Mol. Reprod. Dev. 25:61-66 (1990); and Wolf D. P. et al. Biol. Reprod. 41:335-346 (1989). All of these three publications are hereby incorporated by reference.
(§3) To measure the effects of bombesin on the acrosome reaction, capacitation was conducted in the presence or absence of bombesin. After incubation, samples of sperm were removed to determine the percentage of sperm which had undergone the acrosome reaction as measured with an acrosome specific monoclonal antibody and FITC fluorescence [see Wolf, D. P. Am. J. Reprod. Immunol. 20:106-113 (1989), which is hereby incorporated by reference].
[…] bombesin analogs, BIM 26136, BIM 26187, BIM 26189, BIM 26224, BIM 26226, BIM 26244, and BIM 26028, were used to test their effect on the acrosome reaction, either alone or in the presence GRP, in a manner described above.

monkey sperm = assay: acrosome reaction in monkey sperm (acrosome specific monoclonal antibody, FITC fluorescence); format: cell-based, monkeys (rhesus); conditions: for stimulation of the spontaneous acrosome reaction: monkeys (rhesus)
Protocol: as §1, §2, §3

human sperm = assay: acrosome reaction in human sperm; format: cell-based; conditions: for stimulation of the spontaneous acrosome reaction: humans
Protocol: as §1, §3

sperm [2] = conditions: high doses, 1 μg/ml; cited from earlier work
new GRP receptor = assay: response of new GRP receptor in transfected cells and Xenopus oocytes; format: cell-based, rat
From the text: A new GRP receptor, which is expressed in very high levels in rat sperm, has recently been cloned. cDNA encoding this receptor was used to determine if this new GRP receptor is expressed in primate sperm.

CC(C)C[C@H](NC(=O)[C@H](CC(C)C)NC(=O)[C@H](Cc1c[nH]cn1)NC(=O)CNC(=O)[C@@H](NC(=O)[C@H](C)NC(=O)[C@H](Cc1c[nH]c2ccccc12)NC(=O)[C@H](CCC(N)=O)NC(=O)[C@H](N)Cc1ccccc1)C(C)C)C(N)=O [BIM 26137, H-D-Phe-Gln-Trp-Ala-Val-Gly-His-Leu-Leu-NH2]
% Acrosome Reacted, Analog + GRP (sperm [1]): 7.000 ± .707% | % Acrosome Reacted, Analog (sperm [1]): 7.000 ± .707%

CCCC[C@H](NC(=O)[C@H](Cc1ccccc1)NC(=O)[C@H](Cc1c[nH]cn1)NC(=O)CNC(=O)[C@@H](NC(=O)[C@H](C)NC(=O)[C@H](Cc1c[nH]c2ccccc12)NC(=O)[C@H](CCC(N)=O)NC(=O)[C@H](N)Cc1ccccc1)C(C)C)C(N)=O [BIM 26224, H-D-Phe-Gln-Trp-Ala-Val-Gly-His-Phe-Nle-NH2]
% Acrosome Reacted, Analog + GRP (sperm [1]): 6.000 ± 1.000% | % Acrosome Reacted, Analog (sperm [1]): 9.000 ± 1.581%

COC(=O)[C@H](CC(C)C)NC(=O)[C@H](Cc1c[nH]cn1)NC(=O)[C@@H](C)NC(=O)[C@@H](NC(=O)[C@H](C)NC(=O)[C@H](Cc1c[nH]c2ccccc12)NC(=O)[C@H](CCC(N)=O)NC(=O)[C@H](N)Cc1c(F)c(F)c(F)c(F)c1F)C(C)C [BIM 26226, H-D-F5 -Phe-Gln-Trp-Ala-Val-D-Ala-His-Leu-OCH3] (H-[dPhe(F5)]QWAV[dA]HL-OMe)
% Acrosome Reacted, Analog + GRP (sperm [1]): 12.000 ± .707% | % Acrosome Reacted, Analog (sperm [1]): 9.000 ± 1.780%

CSCC[C@H](NC(=O)[C@H](CC(C)C)NC(=O)[C@H](Cc1cnc[nH]1)NC(=O)CNC(=O)[C@@H](NC(=O)[C@H](C)NC(=O)[C@H](Cc1c[nH]c2ccccc12)NC(=O)[C@H](CCC(N)=O)NC(=O)[C@H](CC(N)=O)NC(=O)CNC(=O)[C@H](CC(C)C)NC(=O)[C@H](CCCN=C(N)N)NC(=O)[C@H](CCC(N)=O)NC(=O)[C@@H]1CCC(=O)N1)C(C)C)C(N)=O [bombesin, H-pGlu-Gln-Arg-Leu-Gly-Asn-Gln-Trp-Ala-Val-Gly-His-Leu-Met-NH2]
increase in the acrosome reaction (monkey sperm; monkey sperm, concentrations as low as 5 nM bombesin, FIG. 2): 2 fold | stimulation of the spontaneous acrosome reaction (monkey sperm): stimulate | increase in the acrosome reaction (human sperm; human sperm, concentrations as low as 5 nM bombesin, FIG. 2): 2 fold | stimulation of the spontaneous acrosome reaction (human sperm): stimulate

CC(=O)[C@H]1CC[C@H]2[C@@H]3CCC4=CC(=O)CC[C@]4(C)[C@H]3CC[C@]12C [progesterone]
induction of the acrosome reaction (sperm [2]): induce the acrosome reaction

H-Ala-Pro-Val-Ser-Val-Gly-Gly-Gly-Thr-Val-Leu-Ala-Lys-Met-Tyr-Pro-Arg-Gly-Asn-His-Trp-Ala-Val-Gly-His-Leu-Met-NH2 (H-APVSVGGGTVLAKMYPRGNHWAVGHLM-NH2) [GRP]
stimulation of the spontaneous acrosome reaction (monkey sperm): stimulate | reaction of the new receptor to the peptide (new GRP receptor): reacted only weakly | stimulation of the spontaneous acrosome reaction (human sperm): stimulate | concentration at which active in stimulating the acrosome reaction (sperm [1]): 1 nM | % Acrosome Reacted, GRP without analog (blank control line, GRP column) (sperm [1]; GRP final concentration 2 nM, no analog): 18.000 ± 3.629%

H-D-Nal-Gln-Trp-Ala-Val-Gly-His-Leu-.psi.(CH2 -NH)-Phe-NH2 [BIM 26136]
rank in inducing the acrosome reaction among the analogs tested (sperm [1]; Table 1, 50 nM): most potent | % Acrosome Reacted, Analog + GRP (sperm [1]): 10.000 ± 1.225% | % Acrosome Reacted, Analog (sperm [1]): 11.000 ± .408%

H-D-Phe-Gln-Trp-Ala-Val-Gly-His-Leu-Cpa-NH2 [BIM 26169]
% Acrosome Reacted, Analog + GRP (sperm [1]): 6.000 ± .408% | % Acrosome Reacted, Analog (sperm [1]): 10.000 ± .913%

Neuromedin B
reaction of the new receptor to the peptide (new GRP receptor): reacted only weakly
